We go through two molecules from US8596358B2, “Well treatment” (Statoil ASA, priority 2004, dated 2013).

Values after ≈ are worked out from the molar mass of the structure shown.

Data set [1] is described as follows: Biodegradability according to OECD 306. The note with it: as tested according to OECD 306. The text has this:
(§1) Materials for use in the invention include organosilanes, for example organosilane hydrides, organosilane alkoxides and organosilane amines. Organosilane compounds have the advantage that they are typically oil-soluble and react with water. […] Organosilanes for use in the invention preferably have a biodegradability of at least 60%. Whilst not wishing to be bound by theory, it is believed that organosilane compounds react with water and hydrolyse. The resulting chemicals then react with siliceous surfaces in the formation (e.g. the surface of silica sand), coat any sand particles, bind them in place by the formation of bridges and restrict their movement. The advantage of bifunctional organosilanes is their ability to bind two particles together.

A further data set has as its system fish. Description: Fish toxicity (LC50 fish). The note with it: in vivo.
Excerpt: as §1

For the next data set, the system named is algae. Briefly: Algae toxicity (IC50 algae). It is filed as cell-based.
Excerpt: as §1

The test system of the next data set is daphnia. Description: Daphnia toxicity (EC50 daphnia). The following applies: in vivo.
Excerpt: as §1

On to `CCO[Si](CCCN)(OCC)OCC` [DYNASYLAN AMEO, 3-amino-propyltriethoxysilane], for which, in data set [1], the biodegradability turned out to be 67%. In addition, the LC50 fish with fish turned out to be 934 µg/mL (≈ 4220 µM).

In turn, `CCO[Si](CCCNCCC[Si](OCC)(OCC)OCC)(OCC)OCC` [DYNASYLAN bis-AMEO] displayed an IC50 algae in the data set on algae of 125 µg/mL (≈ 294 µM). Besides, the LC50 fish with fish is above 200 µg/mL. Moreover, in the data set on daphnia, the EC50 daphnia was above 200 µg/mL.
